Results from publication PMC7594851, “Enhanced oral bioavailability of an etoposide multiple nanoemulsion incorporating a deoxycholic acid derivative–lipid complex” (Drug Delivery, 2020).
≈ marks a conversion by molar mass, not a printed value. Where “and” joins values, the source holds several entries; their conditions need not be identical. Equal entries are not always repeated. Structures can show the parent of a compound that is named as a salt.

How the values were obtained:
[1] = Droplet size, polydispersity index and zeta potential by dynamic laser light scattering; format: physicochemical; conditions: mean ± SD, n=6
Experimental: The average droplet size, polydispersity index (PDI), and zeta potential of ELNE were determined using a dynamic laser light scattering analyzer (Malvern Zetasizer Nano ZS90; Malvern Instruments, Malvern, UK). Morphological evaluation of the selected ELNE was performed by transmission electron microscopy (JEM-200; JEOL, Tokyo, Japan).

[2] = Parallel artificial membrane permeability assay (effective permeability, Pe); format: in vitro ADME; conditions: PAMPA; Table S3: after dissolution of ETP or ETP/LMCs in water, or incorporation into the nanoemulsion; mean ± SD, n=6
Experimental: A parallel artificial membrane permeability assay was performed using pre-coated 96-well plates designed for this assay (Corning, Corning, NY) according to the manufacturer’s instructions. Briefly, 300 µL PBS (pH 6.8) was added to the receiver plate, and 200 µL of each formulation diluted in PBS (pH 6.8) containing 100 µg/mL ETP was added to each well of the filter plate. The plates were then assembled, and the system was incubated at room temperature for five hours without shaking. After five hours, the plates were disassembled, and samples were withdrawn from both the donor and acceptor plates. The concentration of ETP that permeated through the artificial membrane was measured by HPLC at 254 nm. […] The effective permeability (Pe) of each sample was calculated according to the formula: (1) Pe=−ln[1−CA(t)/Cequilibrium]/[A ×(1/VD+1/VA)×t] where Pe is the permeability (cm/s), A is the effective permeation area (0.288 cm^2), VD is the volume of the donor well (0.2 mL), VA is the volume of the acceptor well (0.3 mL), t is the total incubation time in s, CA(t) is the concentration of the drug in the acceptor well at time t, and Cequilibrium represents [CD(t) × VD + CA(t) × VA]/(VD + VA), where CD(t) denotes the concentration of the drug in the donor well at time t.

[3] = Aqueous solubility of ETP and ETP/LMC complexes; format: physicochemical; conditions: water; mean ± SD, n=6
Text: Supplement IDRD_A_1837293_SM2931.docx, table 3: Table S3. Aqueous solubilities of a physical complex of ETP and LMC and effective permeabilities of ETP and ETP/LMC or ETP and ETP/LMC-loaded nanoemulsion. | column: Aqueous solubility (μg/mL)

Row | SMILES | Particle size [1] [nm] | Polydispersity index [1] | Zeta potential [1] | Papp at 5 h, 100 µg/mL [2] [×10⁻⁶ cm/s] | solubility [3] [µg/mL]
1 | COC(=O)C(CCCCN)NC(=O)CCC(C)C1CCC2C3CCC4CC(O)CCC4(C)C3CC(O)C12C (stereo not drawn) [DCK, N^α-deoxycholyl-l-lysyl-methylester] | 263 ± 42.4 | 0.717 ± 0.107 | 29.4 ± 0.57 mV and 29.4 ± 0.576 mV | – | –
2 | COc1cc([C@@H]2c3cc4c(cc3[C@@H](O[C@@H]3O[C@@H]5CO[C@@H](C)O[C@H]5[C@H](O)[C@H]3O)[C@H]3COC(=O)[C@H]23)OCO4)cc(OC)c1O [ETP, etoposide] | – | – | – | 0.251 ± 0.063 | 230 ± 29.4 (≈ 391 µM)
3 | CCCCCCCCCC(=O)OC[C@H](COP(=O)(O)O)OC(=O)CCCCCCCCC [PA, 1,2-didecanoyl-sn-glycero-3-phosphate (sodium salt)] | 276 ± 3.67 | 0.330 ± 0.008 | – | – | –
